Data: PMC3745430, “Novel Multiplexed Assay for Identifying SH2 Domain Antagonists of STAT Family Proteins” (PLoS ONE, 2013)

Experiments:
[1] = system: STAT3 reporter HeLa stable cell line; experiment: STAT3 luciferase reporter gene assay; format: cell-based; settings: pretreatment before oncostatin M stimulation (Figure S10)
Method: STAT3 reporter HeLa stable cell lines were incubated in a 96-well microplate for 24 hours. Cells were pretreated with test compounds for 1 hour, and 10 ng/ml (w/v) of oncostatin M were applied and incubated for 4 hours. Cells were washed with medium not supplemented with phenol red, and Steady-Glo® reagent (Promega) was applied. After 5 min incubation, the signals were detected by ARVO Light 1420 (PerkinElmer Life Sciences). The relative signal intensity was calculated in each well as the ratio for the mean signal of vehicle.

STAT5b(136–703) [2] = molecular target: T1, STAT5b(136–703) (Homo sapiens, UniProt P51692); experiment: Single STAT5b-SH2 binding assay (AlphaScreen); settings: non-multiplexed single assay
T1 construct: 136 to 703 of human STAT5b; 6×His-tag (N); made in house; host or cells: E. coli BL-21 Star (DE3) pLysS co-transformed with pBirAcm
T1 sequence (P51692 136-703): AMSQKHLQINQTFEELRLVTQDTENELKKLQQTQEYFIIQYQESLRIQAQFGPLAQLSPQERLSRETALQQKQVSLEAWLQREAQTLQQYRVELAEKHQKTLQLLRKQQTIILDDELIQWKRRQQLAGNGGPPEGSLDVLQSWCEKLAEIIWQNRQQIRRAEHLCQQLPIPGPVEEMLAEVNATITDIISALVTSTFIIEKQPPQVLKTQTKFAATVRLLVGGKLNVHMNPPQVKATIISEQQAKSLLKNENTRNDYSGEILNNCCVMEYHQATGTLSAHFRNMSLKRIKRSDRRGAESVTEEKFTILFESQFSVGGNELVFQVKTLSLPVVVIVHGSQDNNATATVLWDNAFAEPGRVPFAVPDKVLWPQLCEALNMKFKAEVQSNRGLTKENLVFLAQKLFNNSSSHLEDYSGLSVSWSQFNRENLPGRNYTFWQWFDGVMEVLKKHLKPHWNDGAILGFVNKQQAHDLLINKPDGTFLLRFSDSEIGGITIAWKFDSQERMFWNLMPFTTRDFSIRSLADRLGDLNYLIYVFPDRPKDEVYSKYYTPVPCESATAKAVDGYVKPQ
Method: (§1) Both AlphaLISA and AlphaScreen are bead-based nonradioactive binding assay systems for detecting biomolecular interactions in a microplate format. The binding of the biological partners brings the donor and acceptor beads into close proximity, and AlphaLISA produces a specific signal around 615 nm and AlphaScreen emits a broad signal between 520 and 620 nm. The assays were performed in a final reaction volume of 25 µL of the assay buffer, which contained 10 mM HEPES-NaOH (pH 7.4), 50 mM NaCl, 1 mM EDTA (pH 8.0), 0.1% (w/v) NP-40, and 10 ng/µL (w/v) BSA in a 96-well microplate at 25°C. The labeled phosphotyrosyl (pTyr, pY) peptide probes were DIG-GpYLPQTV and FITC-GpYLVLDKW for STAT3 and STAT5b, respectively. In the single assay for STAT3 binding, 100 nM STAT3(136–705) protein was incubated with a test compound dissolved in DMSO for 30 min, and 1.0 nM DIG-GpYLPQTV was added and the mixture was incubated for 90 min. Streptavidin-coated donor beads (0.25 µg/well) and anti-DIG AlphaLISA acceptor beads (0.25 µg/well) were added and incubated for 90 min before the signals were measured with EnVison Xcite (PerkinElmer Life Sciences). In the single assay for STAT5b binding, 20 nM STAT5b(136–703) was incubated with a test compound for 30 min, and 1.0 nM FITC-GpYLVLDKW was added and incubated for 90 min. Streptavidin-coated donor beads (0.25 µg/well) and anti-FITC AlphaScreen acceptor beads (0.25 µg/well) were added and incubated for 90 min before the signals were measured with EnVison Xcite. In the multiplexed assay, 100 nM STAT3(136–705) and 20 nM STAT5b(136–703) were incubated with a test compound for 30 min, and 1.0 nM DIG-GpYLPQTV and 1.0 nM FITC-GpYLVLDKW were added and incubated for 90 min. Streptavidin-coated donor beads (0.50 µg/well), anti-DIG AlphaLISA (0.25 µg/well), and anti-FITC AlphaScreen acceptor beads (0.25 µg/well) were added and incubated for 90 min before the signals were measured with EnVison Xcite. AlphaLISA and AlphaScreen signals for measuring STAT3- and STAT5b-SH2 binding, respectively, can be separately measured by using a dysprosium 572 nm and a europium 615 nm narrow bandwidth filter. In inhibitory assays, these signals for the bound state and the free state were represented as 0% and 100% inhibition, respectively. The bound state was measured by incubating the labeled peptide and the protein without test compounds. The free state was measured by incubating the same mixture with an additional 10 µM non-labeled peptide contained phosphorylated tyrosine, which competitively binds to its corresponding protein. The IC50 value was calculated by Graph pad prism 4.0. The mean and the standard error (SEM) of IC50 values were determined from three independent experiments. The Z’ value was calculated using the equation Z’ = 1–(3×SD_bound +3×SD_free)/(Signal_bound – Signal_free). STAT1 and Grb2 binding assays were performed as described in previous report. In the assays for selectivity of Compound 1, 100 pM biotinylated DIG or 100 pM biotinylated FITC was incubated with 10 µM or 30 µM Compound 1 for 30 min. Streptavidin-coated donor beads (0.25 µg/well) and anti-DIG AlphaLISA acceptor beads (0.25 µg/well) or anti-FITC AlphaScreen acceptor beads (0.25 µg/well) were added and incubated for 90 min before the signals were measured with EnVison Xcite.

STAT5b(136–703) [3] = molecular target: T1, STAT5b(136–703); experiment: Multiplexed Alpha assay, STAT5b-SH2 binding (AlphaScreen); settings: multiplexed binding assay; mean and SEM, three independent experiments; read-out: IC50 STAT5b-SH2 binding (STAT5b)
Method: as §1

Grb2-SH2 = molecular target: T2, Grb2-SH2 (Homo sapiens, UniProt P62993); experiment: Grb2-SH2 binding AlphaScreen assay; settings: AlphaScreen assay (Figure S8A)
T2 construct: made in house
Method: Both AlphaLISA and AlphaScreen are bead-based nonradioactive binding assay systems for detecting biomolecular interactions in a microplate format. The binding of the biological partners brings the donor and acceptor beads into close proximity, and AlphaLISA produces a specific signal around 615 nm and AlphaScreen emits a broad signal between 520 and 620 nm. The assays were performed in a final reaction volume of 25 µL of the assay buffer, which contained 10 mM HEPES-NaOH (pH 7.4), 50 mM NaCl, 1 mM EDTA (pH 8.0), 0.1% (w/v) NP-40, and 10 ng/µL (w/v) BSA in a 96-well microplate at 25°C. […] Streptavidin-coated donor beads (0.25 µg/well) and anti-DIG AlphaLISA acceptor beads (0.25 µg/well) were added and incubated for 90 min before the signals were measured with EnVison Xcite (PerkinElmer Life Sciences). […] Streptavidin-coated donor beads (0.25 µg/well) and anti-FITC AlphaScreen acceptor beads (0.25 µg/well) were added and incubated for 90 min before the signals were measured with EnVison Xcite. […] Streptavidin-coated donor beads (0.50 µg/well), anti-DIG AlphaLISA (0.25 µg/well), and anti-FITC AlphaScreen acceptor beads (0.25 µg/well) were added and incubated for 90 min before the signals were measured with EnVison Xcite. […] The bound state was measured by incubating the labeled peptide and the protein without test compounds. […] The IC50 value was calculated by Graph pad prism 4.0. […]

IC50 (STAT5b(136–703) [2]): 10 µM
IC50 (STAT5b(136–703) [3]): 11 ± 0.27 µM
Inhibition of Grb2-SH2 binding (Grb2-SH2): inhibited neither
SMILES: O=C1C=CC(=NC2=C(Cl)C(=O)c3ccccc3C2=O)C=C1 [Compound 1]
Effect on STAT3 transcriptional activity [1]: reduced the STAT3 transcriptional activity in a dose-dependent manner
